Assay results: article PMC7377239, “Cardiovascular Effects of Polychlorinated Biphenyls and Their Major Metabolites” (Environmental Health Perspectives, 2020)
Counter-ions that a name gives are not always drawn. Like-named read-outs stand apart in the source and are kept apart here.

System: HUVECs
Test: Tube formation (tubulogenesis) assay in HUVECs, 18 h
Assay type: cell-based, human
Conditions: Homo sapiens, HUVEC, 18 h
Method in brief: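 HUVECs (passage 1–5) seeded on reduced-growth-factor basement membrane and exposed to compounds overnight at 37°C, 5% CO2, in 2× maintenance medium with 12.5 ng/mL VEGF; 0.5% DMSO vehicle. Calcein AM-stained tube networks imaged and analysed; vehicle-normalized readouts fit to four-parameter logistic, POD set at one SD of vehicle means.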

[1] = HUVECs, 0.01 µM, 0.00 µM = 100.00, read-out: huvec.mtl.18hr
[2] = HUVECs, 0.01 µM, 0.00 µM = 100.00, read-out: huvec.tlps.18hr
[3] = HUVECs, 0.01 µM, 0.00 µM = 100.00, read-out: huvec.tta.18hr
[4] = HUVECs, 0.01 µM, 0.00 µM = 100.00, read-out: huvec.ttl.18hr
[5] = HUVECs, 0.10 µM, 0.00 µM = 100.00, read-out: huvec.mtl.18hr
[6] = HUVECs, 0.10 µM, 0.00 µM = 100.00, read-out: huvec.tlps.18hr
[7] = HUVECs, 0.10 µM, 0.00 µM = 100.00, read-out: huvec.tta.18hr
[8] = HUVECs, 0.10 µM, 0.00 µM = 100.00, read-out: huvec.ttl.18hr
[9] = HUVECs, 1.00 µM, 0.00 µM = 100.00, read-out: huvec.mtl.18hr
[10] = HUVECs, 1.00 µM, 0.00 µM = 100.00, read-out: huvec.tlps.18hr
[11] = HUVECs, 1.00 µM, 0.00 µM = 100.00, read-out: huvec.tta.18hr
[12] = HUVECs, 1.00 µM, 0.00 µM = 100.00, read-out: huvec.ttl.18hr
[13] = HUVECs, 10.00 µM, 0.00 µM = 100.00, read-out: huvec.mtl.18hr
[14] = HUVECs, 10.00 µM, 0.00 µM = 100.00, read-out: huvec.tlps.18hr
[15] = HUVECs, 10.00 µM, 0.00 µM = 100.00, read-out: huvec.tta.18hr
[16] = HUVECs, 10.00 µM, 0.00 µM = 100.00, read-out: huvec.ttl.18hr
[17] = HUVECs, 100.00 µM, 0.00 µM = 100.00, read-out: huvec.mtl.18hr
[18] = HUVECs, 100.00 µM, 0.00 µM = 100.00, read-out: huvec.tlps.18hr
[19] = HUVECs, 100.00 µM, 0.00 µM = 100.00, read-out: huvec.tta.18hr
[20] = HUVECs, 100.00 µM, 0.00 µM = 100.00, read-out: huvec.ttl.18hr
[21] = HUVECs, top concentration 100.00 µM, read-out: huvec.mtl.18hr POD
[22] = HUVECs, top concentration 100.00 µM, read-out: huvec.tlps.18hr POD
[23] = HUVECs, top concentration 100.00 µM, read-out: huvec.tta.18hr POD
[24] = HUVECs, top concentration 100.00 µM, read-out: huvec.ttl.18hr POD
[25] = tube formation mtl, read-out: POD huvec.mtl.18hr
[26] = tube formation tlps, read-out: POD huvec.tlps.18hr
[27] = tube formation tta, read-out: POD huvec.tta.18hr
[28] = tube formation ttl, read-out: POD huvec.ttl.18hr

## Clc1ccc(Cl)c(-c2c(Cl)ccc(Cl)c2Cl)c1 [PCB95]
HUVECs tube formation, MAX 100.00, read-out: huvec.mtl.18hr POD
  minimal effective concentration: 8.29 µM
HUVECs tube formation, MAX 100.00, read-out: huvec.tlps.18hr POD
  minimal effective concentration: 100 µM
HUVECs tube formation, MAX 100.00, read-out: huvec.tta.18hr POD
  minimal effective concentration: 100 µM
HUVECs tube formation, MAX 100.00, read-out: huvec.ttl.18hr POD
  minimal effective concentration: 100 µM
HUVECs tube formation, concentration 0.01 µM, 0.00 µM = 100.00, read-out: huvec.mtl.18hr
  activity at 0.01 µM: 96.9%
HUVECs tube formation, concentration 0.01 µM, 0.00 µM = 100.00, read-out: huvec.tlps.18hr
  activity at 0.01 µM: 80.5%
HUVECs tube formation, concentration 0.01 µM, 0.00 µM = 100.00, read-out: huvec.tta.18hr
  activity at 0.01 µM: 75.1%
HUVECs tube formation, concentration 0.01 µM, 0.00 µM = 100.00, read-out: huvec.ttl.18hr
  activity at 0.01 µM: 63%
HUVECs tube formation, concentration 0.10 µM, 0.00 µM = 100.00, read-out: huvec.mtl.18hr
  activity at 0.1 µM: 82.7%
HUVECs tube formation, concentration 0.10 µM, 0.00 µM = 100.00, read-out: huvec.tlps.18hr
  activity at 0.1 µM: 88.7%
HUVECs tube formation, concentration 0.10 µM, 0.00 µM = 100.00, read-out: huvec.tta.18hr
  activity at 0.1 µM: 71.1%
HUVECs tube formation, concentration 0.10 µM, 0.00 µM = 100.00, read-out: huvec.ttl.18hr
  activity at 0.1 µM: 63.9%
HUVECs tube formation, concentration 1.00 µM, 0.00 µM = 100.00, read-out: huvec.mtl.18hr
  activity at 1 µM: 104%
HUVECs tube formation, concentration 1.00 µM, 0.00 µM = 100.00, read-out: huvec.tlps.18hr
  activity at 1 µM: 86.3%
HUVECs tube formation, concentration 1.00 µM, 0.00 µM = 100.00, read-out: huvec.tta.18hr
  activity at 1 µM: 78.7%
HUVECs tube formation, concentration 1.00 µM, 0.00 µM = 100.00, read-out: huvec.ttl.18hr
  activity at 1 µM: 68.7%
HUVECs tube formation, concentration 10.00 µM, 0.00 µM = 100.00, read-out: huvec.mtl.18hr
  activity at 10 µM: 87.4%
HUVECs tube formation, concentration 10.00 µM, 0.00 µM = 100.00, read-out: huvec.tlps.18hr
  activity at 10 µM: 88.9%
HUVECs tube formation, concentration 10.00 µM, 0.00 µM = 100.00, read-out: huvec.tta.18hr
  activity at 10 µM: 84%
HUVECs tube formation, concentration 10.00 µM, 0.00 µM = 100.00, read-out: huvec.ttl.18hr
  activity at 10 µM: 79.8%
HUVECs tube formation, concentration 100.00 µM, 0.00 µM = 100.00, read-out: huvec.mtl.18hr
  activity at 100 µM: 72.8%
HUVECs tube formation, concentration 100.00 µM, 0.00 µM = 100.00, read-out: huvec.tlps.18hr
  activity at 100 µM: 64.1%
HUVECs tube formation, concentration 100.00 µM, 0.00 µM = 100.00, read-out: huvec.tta.18hr
  activity at 100 µM: 68.8%
HUVECs tube formation, concentration 100.00 µM, 0.00 µM = 100.00, read-out: huvec.ttl.18hr
  activity at 100 µM: 61.4%

## Oc1cc(Cl)c(-c2cc(Cl)ccc2Cl)cc1Cl [4-OH PCB52]
[1]
  activity at 0.01 µM: 112%
[2]
  activity at 0.01 µM: 103%
[3]
  activity at 0.01 µM: 129%
[4]
  activity at 0.01 µM: 112%
[5]
  activity at 0.1 µM: 98.5%
[6]
  activity at 0.1 µM: 96.7%
[7]
  activity at 0.1 µM: 107%
[8]
  activity at 0.1 µM: 98.2%
[9]
  activity at 1 µM: 94%
[10]
  activity at 1 µM: 92.4%
[11]
  activity at 1 µM: 123%
[12]
  activity at 1 µM: 110%
[13]
  activity at 10 µM: 91.1%
[14]
  activity at 10 µM: 77.1%
[15]
  activity at 10 µM: 98.5%
[16]
  activity at 10 µM: 87.2%
[17]
  activity at 100 µM: 69.6%
[18]
  activity at 100 µM: 35.6%
[19]
  activity at 100 µM: 168%
[20]
  activity at 100 µM: 163%
[21]
  minimal effective concentration: 8.34 µM
[22]
  minimal effective concentration: 4.13 µM
[23]
  minimal effective concentration: 51.8 µM
[24]
  minimal effective concentration: 62.1 µM

## Oc1cc(Cl)c(-c2cc(Cl)ccc2Cl)cc1Cl [4-OH-PCB 52]
[25]
  minimal effective concentration: 8.34 µM
[26]
  minimal effective concentration: 4.13 µM
[27]
  minimal effective concentration: 51.8 µM
[28]
  minimal effective concentration: 62.1 µM

## Oc1ccc(O)c(-c2ccc(Cl)cc2)c1 [2',5'-DiOH PCB3]
[1]
  activity at 0.01 µM: 99%
[2]
  activity at 0.01 µM: 90.3%
[3]
  activity at 0.01 µM: 127%
[4]
  activity at 0.01 µM: 123%
[5]
  activity at 0.1 µM: 104%
[6]
  activity at 0.1 µM: 135%
[7]
  activity at 0.1 µM: 107%
[8]
  activity at 0.1 µM: 107%
[9]
  activity at 1 µM: 91.9%
[10]
  activity at 1 µM: 93.2%
[11]
  activity at 1 µM: 87.2%
[12]
  activity at 1 µM: 90.1%
[13]
  activity at 10 µM: 64.1%
[14]
  activity at 10 µM: 21.9%
[15]
  activity at 10 µM: 19.3%
[16]
  activity at 10 µM: 19.9%
[17]
  activity at 100 µM: 57.8%
[18]
  activity at 100 µM: 9.87%
[19]
  activity at 100 µM: 0.82%
[20]
  activity at 100 µM: 1.52%
[21]
  minimal effective concentration: 1.26 µM
[22]
  minimal effective concentration: 1.55 µM
[23]
  minimal effective concentration: 1.39 µM
[24]
  minimal effective concentration: 1.23 µM

## O=S(=O)(O)Oc1ccc(-c2ccc(Cl)cc2)cc1 [4'-yl PCB 3 sulfate]
[1]
  activity at 0.01 µM: 107%
[2]
  activity at 0.01 µM: 166%
[3]
  activity at 0.01 µM: 116%
[4]
  activity at 0.01 µM: 109%
[5]
  activity at 0.1 µM: 106%
[6]
  activity at 0.1 µM: 138%
[7]
  activity at 0.1 µM: 140%
[8]
  activity at 0.1 µM: 133%
[9]
  activity at 1 µM: 117%
[10]
  activity at 1 µM: 173%
[11]
  activity at 1 µM: 125%
[12]
  activity at 1 µM: 123%
[13]
  activity at 10 µM: 93%
[14]
  activity at 10 µM: 102%
[15]
  activity at 10 µM: 93.4%
[16]
  activity at 10 µM: 88.6%
[17]
  activity at 100 µM: 57.3%
[18]
  activity at 100 µM: 38.9%
[19]
  activity at 100 µM: 53.2%
[20]
  activity at 100 µM: 59.7%
[21]
  minimal effective concentration: 11.2 µM
[22]
  minimal effective concentration: 100 µM
[23]
  minimal effective concentration: 25.4 µM
[24]
  minimal effective concentration: 100 µM

## O=S(=O)(O)Oc1cccc(-c2ccc(Cl)cc2)c1 [3'-yl PCB 3 sulfate]
[1]
  activity at 0.01 µM: 106%
[2]
  activity at 0.01 µM: 119%
[3]
  activity at 0.01 µM: 121%
[4]
  activity at 0.01 µM: 112%
[5]
  activity at 0.1 µM: 110%
[6]
  activity at 0.1 µM: 121%
[7]
  activity at 0.1 µM: 141%
[8]
  activity at 0.1 µM: 142%
[9]
  activity at 1 µM: 111%
[10]
  activity at 1 µM: 129%
[11]
  activity at 1 µM: 141%
[12]
  activity at 1 µM: 137%
[13]
  activity at 10 µM: 97.5%
[14]
  activity at 10 µM: 141%
[15]
  activity at 10 µM: 104%
[16]
  activity at 10 µM: 102%
[17]
  activity at 100 µM: 58%
[18]
  activity at 100 µM: 37.8%
[19]
  activity at 100 µM: 52.3%
[20]
  activity at 100 µM: 58.3%
[21]
  minimal effective concentration: 15.5 µM
[22]
  minimal effective concentration: 100 µM
[23]
  minimal effective concentration: 100 µM
[24]
  minimal effective concentration: 100 µM

## Clc1ccc(Cl)c(-c2cc(Cl)ccc2Cl)c1 [PCB 52, 2,2′,5,5′-tetrachlorobiphenyl]
[25]
  minimal effective concentration: 100 µM
[26]
  minimal effective concentration: 100 µM
[27]
  minimal effective concentration: 100 µM
[28]
  minimal effective concentration: 100 µM
